Experimental data published in US9040516B2, “Uracil derivative and use thereof for medical purposes” (SUMITOMO DAINIPPON PHARMA CO., LTD., priority 2011, dated 2015).

biological target: T1, human neutrophil elastase (Homo sapiens, UniProt P08246); assay: Inhibitory action against human neutrophil elastase (Test Example 1; fluorogenic substrate MeOSuc-AAPV-AMC, buffer with 2M NaCl, 0.002% Brij-35); assay type: biochemical; conditions: 37° C., read-out: IC50 value (compound concentration required for 50% inhibition of human neutrophil elastase)
T1 construct: purchased Elastin Products Company
T1 sequence (P08246 30-267): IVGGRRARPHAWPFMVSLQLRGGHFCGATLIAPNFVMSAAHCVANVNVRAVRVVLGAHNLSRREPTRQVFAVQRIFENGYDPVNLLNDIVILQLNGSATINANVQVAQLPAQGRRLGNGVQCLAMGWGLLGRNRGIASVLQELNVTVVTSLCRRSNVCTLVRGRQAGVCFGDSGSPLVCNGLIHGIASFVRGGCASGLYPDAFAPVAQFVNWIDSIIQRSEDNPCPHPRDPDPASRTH
Procedure: Assay buffer (0.4 unit/ml HNE (human neutrophil elastase, available from Elastin Products Company), 200 mM HEPES [N-(2-hydroxyethyl)piperazine-N′-(2-ethanesulfonic acid)], pH 7.5, 2M NaCl, 0.002% Brij-35) 100 μl, water for injection 40 μl and DMSO (dimethyl sulfoxide) solution of the present compound 20 μl were mixed in a 96 well plate and the mixed solutions were pre-incubated at 37° C. for five minutes. After pre-incubation, MeOSuc-AAPV-AMC (methoxysuccinyl-alanyl-alanyl-prolyl-valyl-aminomethyl cumaride (available from Sigma Aldrich Co.) solution as fluorogenic substrate (which was dissolved in 10% DMSO solution so as to adjust to 0.5 mM) 40 μl was added to the above-prepared mixed solution so as to initiate the reaction, and the mixture was incubated at 37° C. for five minutes. The fluorescence intensity of AMC was measured at an excitation wavelength of 380 nm and a fluorescence wavelength of 460 nm and the inhibition ratio was determined.

Compound	IC50
Cc1cccc(-n2c(C)c(-c3ccnn3-c3ccc(C#N)cc3)c(=O)n(C)c2=O)c1 [Example 37, 4-(5-(3,6-dimethyl-2,4-dioxo-1-m-tolyl-1,2,3,4-tetrahydropyrimidin-5-yl)-1H-pyrazol-1-yl)benzonitrile]	191 nM
CCOC(=O)CCn1c(=O)c(-c2ccnn2-c2ccc(C#N)cc2)c(C)n(-c2cccc(C(F)(F)F)c2)c1=O [Example 4, 3-[5-[1-(4-cyanophenyl)-1H-pyrazol-5-yl]-4-methyl-2,6-dioxo-3-(3-trifluoromethylphenyl)-2,3-dihydropyrimidin-1(6H)-yl]propanoic acid ethyl ester]	131 nM
Cc1c(-c2ccnn2-c2ccc(C#N)cc2)c(=O)n(CCC(=O)N(C)C)c(=O)n1-c1cccc(C(F)(F)F)c1 [Example 75, 3-[5-[1-(4-Cyanophenyl)-1H-pyrazol-5-yl]-4-methyl-2,6-dioxo-3-(3-trifluoromethylphenyl)-2,3-dihydropyrimidin-1(6H)-yl]-N,N-dimethylpropaneamide]	656 nM
Cc1c(-c2ccnn2-c2ccc(C#N)cc2)c(=O)n(C)c(=O)n1-c1cccc(Br)c1 [Example 34, 4-[5-[1-(3-bromophenyl)-3,6-dimethyl-2,4-dioxo-1,2,3,4-tetrahydropyrimidin-5-yl]-1H-pyrazol-1-yl]benzonitrile]	232 nM
Cc1c(-c2ccnn2-c2ccc(C#N)cc2)c(=O)n(CCCO)c(=O)n1-c1cccc(C(F)(F)F)c1 [Example 83, 4-[5-[3-(3-Hydroxypropyl)-6-methyl-2,4-dioxo-1-(3-trifluoromethylphenyl)-1,2,3,4-tetrahydropyrimidin-5-yl]-1H-pyrazol-1-yl]benzonitrile]	776 nM
CCCn1c(=O)c(-c2ccnn2-c2ccc(C#N)cc2)c(N)n(-c2cccc([N+](=O)[O-])c2)c1=O [Example 57, 4-[5-[6-Amino-1-(3-nitrophenyl)-2,4-dioxo-3-propyl-1,2,3,4-tetrahydropyrimidin-5-yl]-1H-pyrazol-1-yl]benzonitrile]	159 nM
2-[3,6-dimethyl-2,4-dioxo-1-(3-trifluoromethylphenyl)-1,2,3,4-tetrahydropyrimidin-5-yl]biphenyl-4-carbonitrile [Example 60]	76 nM
CCCn1c(=O)c(-c2ccnn2-c2ccc(C#N)cc2)c(N=CN(C)C)n(-c2cccc([N+](=O)[O-])c2)c1=O [Example 29, N′-[5-[1-(4-cyanophenyl)-1H-pyrazol-5-yl]-3-(3-nitrophenyl)-2,6-dioxo-1-propyl-1,2,3,6-tetrahydropyrimidin-4-yl]-N,N-dimethylformimidamide]	2140 nM
Cc1c(-c2ccnn2-c2ccc(C#N)cc2)c(=O)n(C)c(=O)n1-c1cccc(F)c1 [Example 11, 4-[5-[1-(3-fluorophenyl)-3,6-dimethyl-2,4-dioxo-1,2,3,4-tetrahydropyrimidin-5-yl]-1H-pyrazol-1-yl]benzonitrile]	1360 nM
Cc1c(-c2ccnn2-c2ccc(C#N)cc2)c(=O)n(CCCC(=O)N(C)C)c(=O)n1-c1cccc(C(F)(F)F)c1 [Example 81, 4-[5-[1-(4-cyanophenyl)-1H-pyrazol-5-yl]-4-methyl-2,6-dioxo-3-(3-trifluoromethylphenyl)-2,3-dihydropyrimidin-1(6H)-yl]-N,N-dimethylbutaneamide]	616 nM
Cc1c(-c2ccnn2-c2ccc(C#N)cc2)c(=O)n(C)c(=O)n1-c1ccccc1 [Example 14, 4-[5-(1-phenyl-3,6-dimethyl-2,4-dioxo-1,2,3,4-tetrahydropyrimidin-5-yl)-1H-pyrazol-1-yl]benzonitrile]	12600 nM
Cc1c(-c2ccnn2-c2ccc(C#N)cc2)c(=O)n(C)c(=O)n1-c1cccc(S(C)(=O)=O)c1 [Example 39, 4-(5-(3,6-dimethyl-1-(3-(methylsulfonyl)phenyl)-2,4-dioxo-1,2,3,4-tetrahydropyrimidin-5-yl)-1H-pyrazol-1-yl)benzonitrile]	19900 nM

Continued, values first:

IC50	Compound
19 nM	Cc1c(-c2ccnn2-c2ccc(C#N)cc2)c(=O)n(C)c(=O)n1-c1cccc(C(F)(F)F)c1 [Example 1, 4-[5-[3,6-dimethyl-2,4-dioxo-1-(3-trifluoromethylphenyl)-1,2,3,4-tetrahydropyrimidin-5-yl]-1H-pyrazol-1-yl]benzonitrile]
3.2 nM	CC(=O)NCCCCCn1c(=O)c(-c2ccnn2-c2ccc(C#N)cc2)c(C)n(-c2cccc(C(F)(F)F)c2)c1=O [Example 86, N-[5-[5-[1-(4-Cyanophenyl)-1H-pyrazol-5-yl]-4-methyl-2,6-dioxo-3-(3-trifluoromethylphenyl)-2,3-dihydropyrimidin-1(6H)-yl]pentyl]acetamide]
64 nM	Cc1c(-c2ccnn2-c2ccc(C#N)cc2)c(=O)n(CCCCCNC(=O)OC(C)(C)C)c(=O)n1-c1cccc(C(F)(F)F)c1 [Example 8, tert-butyl 5-[5-[1-(4-cyanophenyl)-1H-pyrazol-5-yl]-4-methyl-2,6-dioxo-3-(3-trifluoromethyl)-2,3-dihydropyrimidine-1(6H)-yl]pentylcarbamate]
108 nM	Cc1c(-c2ccnn2-c2ccc(C#N)cc2)c(=O)n(CC(=O)N[C@@H](C)c2ccccc2)c(=O)n1-c1cccc(C(F)(F)F)c1 [Example 82, (S)-2-(5-(1-(4-cyanophenyl)-1H-pyrazole-5-yl)-4-methyl-2,6-dioxo-3-(3-(trifluoromethyl)phenyl)-2,3-dihydropyrimidin-1(6H)-yl)-N-(1-phenylethyl)acetamide]
19 nM	Cc1c(-c2ccnn2-c2ccc(C#N)cc2)c(=O)n(C)c(=O)n1-c1cccc(C(F)(F)F)c1 [Example 31, 4-[5-[3,6-dimethyl-2,4-dioxo-1-(3-trifluoromethylphenyl)-1,2,3,4-tetrahydropyrimidin-5-yl]-1H-pyrazol-1-yl]benzonitrile]
120 nM	COC(Cn1c(=O)c(-c2ccnn2-c2ccc(C#N)cc2)c(C)n(-c2cccc(C(F)(F)F)c2)c1=O)OC [Example 7, 4-[5-[3-(2,2-dimethoxyethyl)-6-methyl-2,4-dioxo-1-(3-trifluoromethylphenyl)-1,2,3,4-tetrahydropyrimidin-5-yl]-1H-pyrazol-1-yl]benzonitrile]
95 nM	Cc1c(-c2ccnn2-c2ccc(C#N)cc2)c(=O)n(C)c(=O)n1-c1cccc(Cl)c1 [Example 17, 4-[5-[1-(3-chlorophenyl)-3,6-dimethyl-2,4-dioxo-1,2,3,4-tetrahydropyrimidin-5-yl]-1H-pyrazol-1-yl]benzonitrile]
68 nM	CCCn1c(=O)c(-n2cnnc2-c2ccc(C#N)cc2)c(C)n(-c2cccc(C(F)(F)F)c2)c1=O [Example 62, 4-[4-[6-Methyl-2,4-dioxo-3-propyl-1-(3-trifluoromethylphenyl)-1,2,3,4-tetrahydropyrimidin-5-yl]-4H-1,2,4-triazol-3-yl]benzonitrile]
74 nM	Cc1c(-c2cccnc2-c2ccc(C#N)cc2)c(=O)n(C)c(=O)n1-c1cccc(C(F)(F)F)c1 [Example 61, 4-[3-[3,6-dimethyl-2,4-dioxo-1-(3-trifluoromethylphenyl)-1,2,3,4-tetrahydropyrimidin-5-yl]-pyridin-2-yl]benzonitrile]
35 nM	CCCn1c(=O)c(-c2ccnn2-c2ccc(C#N)cc2)c(C)n(-c2cccc(C(F)(F)F)c2)c1=O [Example 2, 4-[5-[6-methyl-2,4-dioxo-3-propyl-1-(3-trifluoromethylphenyl)-1,2,3,4-tetrahydropyrimidin-5-yl]-1H-pyrazol-1-yl]benzonitrile]

same assay, conditions: at 100 μM

Inhibition ratio (%)	Compound
49%	Cc1c(-c2ccnn2-c2cccc(C#N)c2)c(=O)n(C)c(=O)n1-c1cccc(C(F)(F)F)c1 [Example 35, 3-[5-[3,6-dimethyl-2,4-dioxo-1-(3-trifluoromethylphenyl)-1,2,3,4-tetrahydropyrimidin-5-yl]-1H-pyrazol-1-yl]benzonitrile]
76%	Cc1c(-c2ccnn2-c2ccc(C#N)cc2)c(=O)n(C)c(=O)n1-c1ccccc1C(F)(F)F [Example 15, 4-[5-[3,6-dimethyl-2,4-dioxo-1-(2-trifluoromethylphenyl)-1,2,3,4-tetrahydropyrimidin-5-yl]-1H-pyrazol-1-yl]benzonitrile]
50%	COC(=O)c1cccc(-n2c(C)c(-c3ccnn3-c3ccc(C#N)cc3)c(=O)n(C)c2=O)c1 [Example 32, 3-[5-[1-(4-cyanophenyl)-1H-pyrazol-5-yl]-3,6-dimethyl-2,4-dioxo-3,4-dihydropyrimidin-1(2H)-yl]benzoic acid methyl ester]

biological target: T1, human neutrophil elastase; assay: Inhibitory action 2 against human neutrophil elastase (Test Example 2; fluorogenic substrate MeOSuc-AAPV-AMC, buffer with 400 mM NaCl, 0.2 mg/ml BSA); assay type: biochemical; conditions: 37° C., read-out: IC50 value (compound concentration required for 50% inhibition of human neutrophil elastase)
Procedure: Assay buffer (0.4 unit/ml HNE (human neutrophil elastase, available from Elastin Products Company), 200 mM HEPES [N-(2-hydroxyethyl)piperazine-N′-(2-ethanesulfonic acid)], pH 7.5, 400 mM NaCl, 0.2 mg/ml BSA (bovine serum albumin)) 100 μl, water for injection 20 μl and 1% DMSO (dimethyl sulfoxide) solution of the present compound 20 μl were mixed in a 96 well plate and the mixed solutions were pre-incubated at 37° C. for five minutes. After pre-incubation, MeOSuc-AAPV-AMC (methoxysuccinyl-alanyl-alanyl-prolyl-valyl-aminomethyl cumaride (available from Sigma Aldrich Corp.) solution as fluorogenic substrate (which was dissolved in 10% DMSO solution so as to adjust to 0.5 mM) 40 μl was added to the above-prepared mixed solution so as to initiate the reaction, and the mixture was incubated at 37° C. for five minutes. The fluorescence intensity of AMC was measured at an excitation wavelength of 380 nm and a fluorescence wavelength of 460 nm and the inhibition ratio was determined.

IC50	Compound
16.9 nM	Cc1c(-c2ccnn2-c2ccc(C#N)cc2)c(=O)n(C)c(=O)n1-c1cccc(C(F)(F)F)c1 [Example 1, 4-[5-[3,6-dimethyl-2,4-dioxo-1-(3-trifluoromethylphenyl)-1,2,3,4-tetrahydropyrimidin-5-yl]-1H-pyrazol-1-yl]benzonitrile]
64.2 nM	Cc1cccc(-n2c(C)c(-c3ccnn3-c3ccc(C#N)cc3)c(=O)n(C)c2=O)c1 [Example 37, 4-(5-(3,6-dimethyl-2,4-dioxo-1-m-tolyl-1,2,3,4-tetrahydropyrimidin-5-yl)-1H-pyrazol-1-yl)benzonitrile]
23.4 nM	Cc1c(-c2ccnn2-c2ccc(C#N)cc2)c(=O)n(C)c(=O)n1-c1cccc(Cl)c1 [Example 17, 4-[5-[1-(3-chlorophenyl)-3,6-dimethyl-2,4-dioxo-1,2,3,4-tetrahydropyrimidin-5-yl]-1H-pyrazol-1-yl]benzonitrile]
18.6 nM	CCCn1c(=O)c(-c2ccnn2-c2ccc(C#N)cc2)c(C)n(-c2cccc(C(F)(F)F)c2)c1=O [Example 2, 4-[5-[6-methyl-2,4-dioxo-3-propyl-1-(3-trifluoromethylphenyl)-1,2,3,4-tetrahydropyrimidin-5-yl]-1H-pyrazol-1-yl]benzonitrile]
